Structures can show the parent of a compound that is named as a salt. Where two headings read alike, the source gives them in different places.
Assays:
hepatocytes = test: RNA-seq of hepatocytes stimulated with the compounds of Table 68
[1] = system: primary human hepatocytes; test: RNA-seq of primary human hepatocytes treated with 39 small molecules (pilot and validation); settings: for significant modulation of gene expression: RNA-seq, p-value≤0.05, primary human hepatocytes, the modulated genes are listed in the block; for Number (#) of genes having significantly changed expression: pilot RNA-seq study of Example 2, significance: FPKM≥0.5, log 2(fold change)≥1, q-value ≤0.05
[2] = hepatocytes stimulated with the compound, RNA-seq, significance: FPKM≥1, q-value≤0.05, log 2 fold change≥1.5

Row | SMILES | significant modulation of gene expression [1] | Number (#) of genes having significantly changed expression [1] | further results
1 | CC1(C)CCC(c2ccc(Cl)cc2)=C(CN2CCN(c3ccc(C(=O)NS(=O)(=O)c4ccc(N[C@H](CCN5CCOCC5)CSc5ccccc5)c(S(=O)(=O)C(F)(F)F)c4)cc3)CC2)C1 [ABT-263] | – | – | # of genes having significantly altered expression (hepatocytes; [2]): 1
2 | CCCCC/C=C\C/C=C\C/C=C\C/C=C\CCCC(=O)NCCCl [ACEA] | – | – | # of genes having significantly altered expression (hepatocytes): 2
3 | COCCOc1cnc2ccn([C@H](C)c3nnc4c(F)cc(-c5cnn(C)c5)cn34)c(=O)c2c1 [AMG337] | – | – | # of genes having significantly altered expression (hepatocytes; [2]): 3
4 | CN(C)C/C=C/C(=O)Nc1cc2c(Nc3ccc(F)c(Cl)c3)ncnc2cc1O[C@H]1CCOC1 [Afatinib] | – | – | # of genes having significantly altered expression (hepatocytes; [2]): 2010
5 | S=C(NCc1ccc2c(c1)OCO2)N1CCN(c2ncnc3c2oc2ccccc23)CC1 [Amuvatinib] | – | – | # of genes having significantly altered expression (hepatocytes; [2]): 2835
6 | CNC(=O)c1ccccc1Sc1ccc2c(/C=C/c3ccccn3)n[nH]c2c1 [Axitinib] | – | – | # of genes having significantly altered expression (hepatocytes; [2]): 5
7 | CC1(C)CC=C(c2cnc3ccccc3c2)c2cc(C(=O)Nc3ccc(C(=O)O)cc3)ccc21 [BMS 195614] | – | – | # of genes having significantly altered expression (hepatocytes): 46
8 | C[C@@]1(C(=O)Nc2ccc(F)nc2)CCCN1c1nc(Nc2cc(C3CC3)n[nH]2)c2cccn2n1 [BMS-754807] | – | – | # of genes having significantly altered expression (hepatocytes): 302
9 | C=C(c1ccc(C(=O)O)cc1)c1cc2c(cc1C)C(C)(C)CCC2(C)C [Bexarotene] | – | – | # of genes having significantly altered expression (hepatocytes; [2]): 267
10 | COc1cc(Nc2c(C#N)cnc3cc(OCCCN4CCN(C)CC4)c(OC)cc23)c(Cl)cc1Cl [Bosutinib] | – | – | # of genes having significantly altered expression (hepatocytes; [2]): 2184
11 | COCCOCOc1cc2ccc(-c3ccc(C(=O)O)cc3)cc2cc1C12CC3CC(CC(C3)C1)C2 [CD 2665] | – | – | # of genes having significantly altered expression (hepatocytes): 1102
12 | Cc1ccccc1N=Nc1ccc(NC(=O)c2ccnn2C)c(C)c1 [CH223191] | – | – | # of genes having significantly altered expression (hepatocytes): 198
13 | C=C1/C(=C\C=C2/CCC[C@]3(C)[C@@H]([C@H](C)CCCC(C)(C)O)CC[C@@H]23)C[C@@H](O)C[C@@H]1O [Calcitrol] | – | – | # of genes having significantly altered expression (hepatocytes; [2]): 1950
14 | CCN(CC)CCCC(C)Nc1ccnc2cc(Cl)ccc12 (stereo not drawn) [Chloroquine phosphate] | – | – | # of genes having significantly altered expression (hepatocytes): 573
15 | [Cl][Co][Cl] [Cobalt chloride] | – | – | # of genes having significantly altered expression (hepatocytes): 1275
16 | C[C@@H](Oc1cc(-c2cnn(C3CCNCC3)c2)cnc1N)c1c(Cl)ccc(F)c1Cl [Crizotinib] | – | – | # of genes having significantly altered expression (hepatocytes; [2]): 3265
17 | CCCCCCCCCCCC(=O)OC[C@H](COP(=O)([O-])OCC[N+](C)(C)C)OC(=O)CCCCCCCCCCC [DLPC] | – | – | # of genes having significantly altered expression (hepatocytes): 4
18 | Cc1nc(Nc2ncc(C(=O)Nc3c(C)cccc3Cl)s2)cc(N2CCN(CCO)CC2)n1 [Dasatinib] | – | – | # of genes having significantly altered expression (hepatocytes; [2]): 2970
19 | C=C1/C(=C\C=C2/CCC[C@]3(C)[C@@H]([C@H](C)/C=C/C=C/C(O)(CC)CC)CC[C@@H]23)C[C@@H](O)C[C@@H]1O [EB1089] | – | – | # of genes having significantly altered expression (hepatocytes; [2]): 68
20 | CS[C@H]1SC[C@H]2C(=O)N(C)[C@@H](C(C)C)C(=O)OC[C@@H](NC(=O)c3cnc4ccccc4n3)C(=O)N[C@@H](C)C(=O)N(C)[C@@H]1C(=O)N(C)[C@@H](C(C)C)C(=O)OC[C@@H](NC(=O)c1cnc3ccccc3n1)C(=O)N[C@@H](C)C(=O)N2C [Echinomycin] | – | – | # of genes having significantly altered expression (hepatocytes): 7161
21 | CCOC(=O)c1cncn1[C@H](C)c1ccccc1 [Etomidate] | – | – | # of genes having significantly altered expression (hepatocytes): 2

Row | SMILES | significant modulation of gene expression [1] | Number (#) of genes having significantly changed expression [1] | further results
22 | OCCn1cc(-c2ccc3c(c2)CC/C3=N\O)c(-c2ccncc2)n1 [GDC-0879] | – | – | # of genes having significantly altered expression (hepatocytes; [2]): 274
23 | Cc1ccc(NC(=O)c2ccc(CN3CCN(C)CC3)cc2)cc1Nc1nccc(-c2cccnc2)n1 [MT-182, Imatinib] | significantly (p-value≤0.05) modulate | 31 | –
24 | CC1(C)CC=C(c2ccccc2)c2cc(/C=C/c3ccc(C(=O)O)cc3)ccc21 [MT-232, Bms189453] | significantly (p-value≤0.05) modulate | 1 | –
25 | CN1CCC(CNc2ccc3ncc(-c4cccc(OC(F)(F)F)c4)n3n2)CC1 [MT-254, SGI-1776] | significantly (p-value≤0.05) modulate | 64 | –
26 | O=C(O)CC[C@H]1CC[C@@](c2cc(F)ccc2F)(S(=O)(=O)c2ccc(Cl)cc2)CC1 [MT-308, MK-0752] | significantly (p-value≤0.05) modulate | – | –
27 | NNC(=O)c1ccncc1 [MT-312, Isoniazid] | significantly (p-value≤0.05) modulate | 14 | –
28 | c1cc(-c2cnn3cc(-c4ccc(OCCN5CCCCC5)cc4)cnc23)ccn1 [MT-334, Dorsomorphin] | – | 15 | –
29 | CN(CCOc1ccc(CC2SC(=O)NC2=O)cc1)c1ccccn1 (stereo not drawn) [MT-361, Rosiglitazone maleate] | – | 78 | –
30 | CC(C)c1nc(CN(C)C(=O)N[C@H](C(=O)N[C@@H](Cc2ccccc2)C[C@H](O)[C@H](Cc2ccccc2)NC(=O)OCc2cncs2)C(C)C)cs1 [MT-372, Ritonavir] | significantly (p-value≤0.05) modulate | 183 | –
31 | CCOc1ccn(-c2ccc(F)cc2)c(=O)c1C(=O)Nc1ccc(Oc2ccnc(N)c2Cl)c(F)c1 [MT-375, Bms777607] | significantly (p-value≤0.05) modulate | 19 | –
32 | CC1=C(/C=C/C(C)=C/C=C/C(C)=C/C(=O)O)C(C)(C)CCC1 [MT-603, Tretinoin (ATRA)] | significantly (p-value≤0.05) modulate | 30 | –
33 | CCCC(CCC)C(=O)O [MT-625, Valproate] | – | 4 | –
34 | CNCc1ccc(C)c(NC(=O)c2ccc(Nc3nc(-c4ccccc4)c4ccccc4n3)cc2)c1 [MT-636, Bms833923] | significantly (p-value≤0.05) modulate | 66 | –
35 | CC(C)Cc1ccc(C(C)C(=O)O)cc1 (stereo not drawn) [MT-662, Ibuprofen] | significantly (p-value≤0.05) modulate | 18 | –
36 | Oc1nc(-c2ccc(C(F)(F)F)cc2)nc2c1CSCC2 [MT-713, Xav939] | significantly (p-value≤0.05) modulate | 8 | –
37 | c1ccc(-c2[nH]ncc2-c2ccnc3ccccc23)nc1 [MT-740, LY 364947] | significantly (p-value≤0.05) modulate | – | –
38 | CO[C@H]1C[C@@H]2CC[C@@H](C)[C@@](O)(O2)C(=O)C(=O)N2CCCC[C@H]2C(=O)O[C@H]([C@H](C)C[C@@H]2CC[C@@H](O)[C@H](OC)C2)CC(=O)[C@H](C)/C=C(\C)[C@@H](O)[C@@H](OC)C(=O)[C@H](C)C[C@H](C)/C=C/C=C/C=C/1C [MT-882, Rapamycin] | – | 67 | –
39 | CC(=O)Nc1ccc(O)cc1 [MT-922, Acetaminophen (paracetamol)] | – | 3 | –
40 | CCCCC(C)(C)[C@H](O)/C=C/[C@H]1[C@H](O)CC(=O)[C@@H]1C/C=C\CCCC(=O)O [MT-937, DmPGE2] | significantly (p-value≤0.05) modulate | – | –
41 | COc1ccc(C[C@H](NC(C)=O)C(=O)N[C@H]2[C@@H](O)[C@H](n3cnc4c(N(C)C)ncnc43)O[C@@H]2CO)cc1 [MT-993, N-Acetylpurinomycin] | significantly (p-value≤0.05) modulate | – | –

From US20210254056A1, “IDENTIFICATION AND TARGETED MODULATION OF GENE SIGNALING NETWORKS” (CAMP4 THERAPEUTICS CORPORATION, priority 2017, published 2021)
